# Tests used:
# HIF-1α [1] = assay: HIF-1α expression in LNCaP cells (immunoblot of nuclear and whole-cell extracts); format: cell-based, human; details: for reduction of HIF-1α expression/accumulation (nuclear fraction): citrate-producing cell cultured under hypoxia
# From the text: (§1) See Franklin et al.; 1995, Endocrine 3:603-607. […] 20108 USA. Methods: […]
# HIF-1α [2] = assay: HIF-1α expression in PC3 cells (immunoblot of nuclear and whole-cell extracts); format: cell-based, human; details: 4 hours, dose-dependent
# From the text: as §1
# [3] = test system: actin, caspase 3, NF-κB, IκBα; assay: Protein levels of actin, caspase 3, NF-κB, IκBα (immunoblot, specificity control); format: cell-based, human; details: all concentrations tested except 800 μM
# Description: Methods: Cells were plated at a density of 5×10^5 cells into a dish, and then maintained in 37° C. incubator (5% CO2) for 2 days. Prior to the assay, cells were rinsed twice with pre-warmed (37° C.) RPMI-1640 Medium (ATCC No. 30-2001; 10 mM HEPES; 1 mM sodium pyruvate; 2 mM L-glutamine; 4500 mg glucose/L; 1500 mg sodium bicarbonate/L). Cells were incubated with 2 ml of culture medium in the absence or presence of lonidamine at different concentrations for 4 hours at 37° C. either under normoxia or hypoxia (oxygen level <0.1%). At the end of the incubation, the dish was placed on ice, and the cells were washed rapidly twice with cold PBS buffer (4° C.). […] The protein concentration was measured using a Bio-Rad protein assay. […] To detect the expression of caspase 3, NF-κB, P65 and IκBα, the membrane was blocked with TBST-containing 5% non-fat milk for 1 h at room temperature, and the proteins were detected by incubation with the corresponding antibodies overnight at 4° C. and with the alkaline phosphatase-conjugated secondary antibody for 1 h. The specific protein was detected using a colorimetric substrate, and the intensity of each protein was quantified using an NIH image system.
# LNCaP cells = assay: Apoptosis (caspase 3 activation) in citrate-producing LNCaP cells; format: cell-based, human
# Description: (§2) Immunoblotting: Immunoblotting was carried out as described in Example 2. […] Apoptosis assay: […] Lonidamine was added into each well at different concentrations, and then incubated for 6 h at 37° C. To assess the caspase 3 activity, the homogeneous buffer and caspase 3 substrate (Promega No G7791; Promega Corporation, 2800 Woods Hollow Road, Madison Wis. USA 53711) were added into each well in the presence or absence of caspase 3 inhibitor (Promega No G5961). The fluorescence intensity of cleaved substrate was determined using a fluorescence plate reader at excitation 485 nm and emission 530 nm.
# PC3 cells = assay: Apoptosis (caspase 3 activation) in citrate-oxidizing PC3 cells; format: cell-based, human; details: LNCaP vs PC3 (citrate-oxidizing) cells
# Description: as §2
# [4] = test system: human prostate epithelial cells; assay: Apoptosis assay in primary cultures of prostate epithelial cells; format: cell-based; details: primary cultures of prostate epithelial cells (accumulate citrate)
# Description: (§3) Primary Cell Cultures: Primary cultures of human prostate epithelial cells (Cambrex No CC-2555) and human prostate stromal cells (Cambrex No CC-2508) were obtained from Cambrex Bio Science Rockland, Inc. (191 Thomaston Street, Rockland, Me. 04841). Apoptosis assay: […] Lonidamine was added into each well at different concentrations, and then incubated for 6 h at 37° C. To assess the caspase 3 activity, the homogeneous buffer and caspase 3 substrate (Promega No G7791; Promega Corporation, 2800 Woods Hollow Road, Madison Wis. USA 53711) were added into each well in the presence or absence of caspase 3 inhibitor (Promega No G5961). The fluorescence intensity of cleaved substrate was determined using a fluorescence plate reader at excitation 485 nm and emission 530 nm.
# [5] = test system: human prostate stromal cells; assay: Apoptosis assay in primary cultures of prostate stromal cells; format: cell-based; details: primary cultures of prostate stromal cells (do not accumulate citrate)
# Description: as §3
smiles,measurement,setting,value
"O=C(O)c1nn(Cc2ccc(Cl)cc2Cl)c2ccccc12 [lonidamine, 1-(2,4-dichlorobenzyl)-1H-indazole-3-carboxylic acid]",level of HIF-1α protein in nuclear and whole-cell extracts,"HIF-1α [1]; LNCaP cells, hypoxic conditions (oxygen <0.1%), 4 hours, dose-dependent",reduced the level of HIF-1α protein
same,reduction of HIF-1α expression/accumulation (nuclear fraction),HIF-1α [1]; 200 micromolar lonidamine,about 2 fold
same,reduction of HIF-1α expression/accumulation (nuclear fraction),HIF-1α [1]; higher lonidamine concentrations (above 200 micromolar),more than 5 fold
same,"effect on HIF-1α expression, LNCaP compared with PC3","HIF-1α [1]; hypoxic conditions (oxygen level <0.1%), LNCaP vs PC3",more pronounced in LNCaP cells than in PC3 cells
same,level of HIF-1α protein in nuclear and whole-cell extracts,HIF-1α [2]; hypoxic conditions (oxygen <0.1%),reduced the level of HIF-1α protein
same,level of HIF-1α protein in nuclear and whole-cell extracts,HIF-1α [2]; normoxic conditions,reduced the level of HIF-1α protein
same,"inhibition of protein levels of actin, caspase 3, NF-κB, or IκBα",[3],no detectable inhibition
same,activation of caspase 3,LNCaP cells; LNCaP (citrate-producing) cells,induced activation of caspase 3
same,time course of caspase 3 activation,LNCaP cells; lonidamine-treated cells,time-dependent process
same,"activation of caspase 3, LNCaP compared with PC3",PC3 cells,to a much greater extent than in citrate-oxidizing cells (PC3)
same,induction of apoptosis,[4],induced apoptosis only in prostate epithelial cells in a dose-dependent manner
same,induction of apoptosis,[5],induction of apoptosis was not observed

# — patent US20060172953A1, “Treatment of benign prostatic hyperplasia using energolytic agents” (Threshold Pharmaceuticals Inc., priority 2003, published 2006)
